Assay results taken from patent publication US12410211B2, “V1A receptor partial agonist and method of use” (PharmaIN Corporation, priority 2020, dated 2025).
Where two headings read alike, the source gives them in different places. Marks after values point to notes of the source that are not given here. Where a SMILES comes first, the peptide text is derived from it. Bridges are numbered along the chain shown (N, C = ends). [ ]: non-standard residue; d: D form. Aad = N[C@@H](CCCC(=O)O)C(=O)O; Dap = NC[C@H](N)C(=O)O; Mpa = O=C(O)CCS

How the values were obtained:
[1] = Therapeutic index (NOAEL/NOEL): paleness, lethargy, ataxia observation in Sprague-Dawley rats (Example 7); format: in vivo; details: for NOAEL at 24 h: male, Sprague-Dawley
From the text: As used herein, the term “therapeutic index” (TI; also referred to as therapeutic ratio) is a quantitative measure of the relative safety of a drug. […] For the purpose of the present application, lethargy is a lack of energy and/or sleepiness which is visually observed in rats as a lack of mobility, such as a lack of mobility even in the presence of human activity. For the purpose of present specification, peripheral vasoconstriction is visually observed by a paleness of the extremities (e.g., skin of hands, feet, ears, and lips). In rats, peripheral vasoconstriction is determined by a side-by-side comparison of ear paleness in treated subjects (e.g., Sprague Dawley rats, a white rat with easily visualizable changes in redness/paleness) vs. untreated control subjects. The V1a agonist (or partial agonist) with a high therapeutic index will have a better safety profile than that with a low therapeutic index by providing a wider margin of safety for dosing during the treatment of the disease. This NOAEL/NOEL ratio, being a quantitative measure of the relative safety, is a comparison of the amount of a therapeutic agent that causes the therapeutic effect (useful effect, vasoconstriction for the purpose of the present specification) to the amount that causes toxicity. A V1a agonist that causes severe vasoconstriction will affect not only the peripheral vessels, with several layer of smooth muscles, but also other vessels present in other organs (e.g., heart, lungs, kidney, brain) and this will result in observed lethargy and eventually ataxia. A partial agonist is less likely to reach such an extreme level of vasoconstriction and is believed to have a higher therapeutic index.
In this study, 8 to 10 weeks male Sprague-Dawley rats (Charles River; Wilmington, MA) under isoflurane anesthesia (n=3 or 6) were intravenously (IV) or subcutaneously (SC) injected or administered with various test articles. Prior to administration of test articles, the injection area was clipped free of fur, to allow for clear visualization of the dose site, and animal weight was measured and recorded. Animals were housed two per cage. […] Lethargy is when the animal eyes cannot fully open and is associated deep breathing and limited of movement even in the presence of human.

V1a receptor = molecular target: T1, V1a receptor (Homo sapiens, UniProt P37288); test: V1a Human Vasopressin GPCR Cell Based Agonist Calcium Flux Assay; details: for Emax: read-out: V1a Highest agonist effect (% of AVP)
T1 construct: host or cells: CHO cells
T1 sequence (P37288 whole entry): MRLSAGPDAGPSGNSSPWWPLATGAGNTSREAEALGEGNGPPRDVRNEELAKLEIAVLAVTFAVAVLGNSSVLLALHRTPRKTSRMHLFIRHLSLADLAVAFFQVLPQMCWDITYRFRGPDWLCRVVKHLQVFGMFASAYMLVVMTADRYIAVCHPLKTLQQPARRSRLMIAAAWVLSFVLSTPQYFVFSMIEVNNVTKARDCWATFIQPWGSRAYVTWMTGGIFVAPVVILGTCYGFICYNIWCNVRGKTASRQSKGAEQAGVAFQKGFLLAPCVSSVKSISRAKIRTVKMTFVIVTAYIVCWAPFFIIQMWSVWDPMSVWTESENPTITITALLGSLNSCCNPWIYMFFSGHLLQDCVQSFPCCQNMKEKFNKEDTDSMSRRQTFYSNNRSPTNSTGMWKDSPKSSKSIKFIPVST
Experimental: Peptides of Formula (I) include Mpa-Tyr-Phe-Hgn-Asn-Cys-Pro-Lys(X)a-Gly-NH2 [SEQ ID NO. 24]; where (X)a is a peptide with “a” residues and each residue X is independently selected from Gly, and a D- or L-amino acid version of Ala, Lys, Orn, Glu, and Asp, where “a” is 0-10. V1a Human Vasopressin GPCR Cell Based Agonist Calcium Flux Assay were conducted at Eurofins Cerep SA (France) on a fee for service basis. Human recombinant CHO cells expressing human V1 receptors were distributed in microplates. Intracellular calcium signal was detected by fluorimetry, and the signal was acquired before and after addition of a known agonist concentration. The following agonist concentrations were tested (nM); 0.0128, 0.064, 0.32, 1.6, 8, 40, 200, and 1,000. […] All assays were performed in duplicate. Changes in fluorescence intensity reflected changes in the concentration of free cytosolic calcium. […] The half-maximal effective concentration (EC50) was determined by a non-linear regression analysis of the concentration-response curves generated with mean replicate values using Hill equation curve fitting (Cerep, I'Evescault, France).
V1a Human Vasopressin GPCR Cell Based Agonist Calcium Flux Assay were conducted using human recombinant CHO cells expressing human V1 receptor. Briefly, human recombinant CHO cells expressing human V1 receptor were distributed in microplates at 4.5×10^4 cells/well. The fluorescent probe (Fluo4 Direct, Invitrogen) mixed with probenicid in HBSS buffer (Invitrogen) complemented with 20 mM HEPES (Invitrogen) (pH 7.4) is then added into each well and equilibrated with the cells for 60 min at 37° C. then 15 min at 22° C. Thereafter, the assay plates are positioned in a microplate reader (CellLux, PerkinElmer) which is used for the addition of the test compound, reference agonist or HBSS buffer (basal control), and the measurements of changes in fluorescence intensity which varies proportionally to the free cytosolic Ca^2+ ion concentration. The following agonist concentrations were tested (nM), 0.0128, 0.064, 0.32, 1.6, 8, 40, 200, and 1,000. […] All assays were performed in duplicate. Changes in fluorescence intensity reflected changes in the concentration of free cytosolic calcium. […] Referring to FIG. 3 and Table 4, the half-maximal effective concentration (EC50) was determined by non-linear regression analysis of the concentration-response curves generated with mean replicate values using Hill equation curve fitting (Cerep, I'Evescault, France).

[2] = S.C., at the Marked adverse effect dose
[3] = S.C., at the Mild adverse effect dose
[4] = in vivo, sc, S.C., rat, read-out: Highest dose with no-observed adverse effect level without lethargy (NOAEL)
[5] = FIG. 2 / FIG. 3 legend, n=2, read-out: EC50 for V1a receptor

Structure (SMILES) | Paleness (Duration, hrs; SD) [1, 2] | Paleness (Duration, hrs; SD) [1, 3] | Paleness (Duration, hrs; SD) ([1]; S.C., at the NOAEL dose) | Paleness (Duration, hrs; SD) ([1]; S.C., at the NOEL dose) | Highest dose with no-observed effect level or paleness (NOEL) ([1]; S.C., rat) | NOAEL/NOEL (therapeutic index) ([1]; S.C., rat) | NOAEL at 24 h [1, 4] | Marked adverse effect (Lowest dose first showed Ataxia) ([1]; rat, in vivo, sc) | Mild adverse effect (Lowest dose first showed Lethargy) ([1]; rat, in vivo, sc) | EC50 (V1a receptor; [5]) | Emax (V1a receptor; Table 4, n = 2) | NOAEL [1, 4] | Ataxia (duration, hrs; SD) ([1]; rat, in vivo, sc) | EC50 (V1a receptor; Table 3, cells printed in μM, read-out: Estimated V1a EC50, n = 2) | Emax (V1a receptor; Table 3, n = 2) | EC50 (V1a receptor; Table 3, CHO cells expressing human V1 receptor, read-out: Estimated V1a EC50 (nM), n = 2)
NCC(=O)NCC(=O)NCC(=O)NCC(=O)NCC(=O)NCC(=O)NCCCC[C@H](NC(=O)[C@@H]1CCCN1C(=O)[C@@H]1CSSCCC(=O)N[C@@H](Cc2ccc(O)cc2)C(=O)N[C@@H](Cc2ccccc2)C(=O)N[C@@H](CCC(N)=O)C(=O)N[C@@H](CC(N)=O)C(=O)N1)C(=O)NCC(N)=O [SEQ ID NO. 20, Mpa-Tyr-Phe-Gln-Asn-Cys-Pro-Lys(X)a-Gly-NH2; (X)a = (Gly)6] | (>6.76)* hrs | (>5.46)* hrs | (6.11 ± 0.09) hrs | None observed | 0.0015 mg/kg | 100 | 0.15 mg/kg | 5.0 mg/kg | 0.5 mg/kg | 0.0273 µM | 60.9% | – | – | – | – | –
NCC(=O)NCC(=O)NCC(=O)NCC(=O)NCC(=O)NCC(=O)NCC(=O)NCC(=O)NCC(=O)NCCCC[C@H](NC(=O)[C@@H]1CCCN1C(=O)[C@@H]1CSSCCC(=O)N[C@@H](Cc2ccc(O)cc2)C(=O)N[C@@H](Cc2ccccc2)C(=O)N[C@@H](CCC(N)=O)C(=O)N[C@@H](CC(N)=O)C(=O)N1)C(=O)NCC(N)=O [SEQ ID NO. 23, Mpa-Tyr-Phe-Gln-Asn-Cys-Pro-Lys(X)a-Gly-NH2; (X)a = (Gly)9] | (>6.46)* hrs | (6.23 ± 0.05) hrs | (>5.09)* hrs | None observed | 0.0015 mg/kg | 333 | 0.5 mg/kg | 5.0 mg/kg | 1.5 mg/kg | 0.0126 µM | 55.9% | – | – | – | – | –
NC[C@H](NC(=O)[C@@H]1CCCN1C(=O)[C@@H]1CSSCCC(=O)N[C@@H](Cc2ccc(O)cc2)C(=O)N[C@@H](Cc2ccccc2)C(=O)N[C@@H](CCCC(N)=O)C(=O)N[C@@H](CC(N)=O)C(=O)N1)C(=O)NCC(N)=O [SEQ ID NO. 17, Mpa-Tyr-Phe-Hgn-Asn-Cys-Pro-Dap-Gly-NH2] ([Mpa]YF[Aad](NH2)NCP[Dap]G-NH2; disulfide 1-6) | (>6.18)* hrs | (>5.92)* hrs | (6.11 ± 0.07) hrs | None observed | 0.014 mg/kg | 34 | – | >9.95 mg/kg | 4.78 mg/kg | – | – | 0.478 mg/kg | None observed | > 10 µM | 3.5% | –
NCC(=O)NCC(=O)NCC(=O)NCC(=O)NCC(=O)NCC(=O)NCC(=O)NCC(=O)NCCCC[C@H](NC(=O)[C@@H]1CCCN1C(=O)[C@@H]1CSSCCC(=O)N[C@@H](Cc2ccc(O)cc2)C(=O)N[C@@H](Cc2ccccc2)C(=O)N[C@@H](CCCC(N)=O)C(=O)N[C@@H](CC(N)=O)C(=O)N1)C(=O)NCC(N)=O [SEQ ID NO. 15, Mpa-Tyr-Phe-Hgn-Asn-Cys-Pro-Lys(X)a-Gly-NH2; (X)a = (Gly)8] | (>6.19)* hrs | (>6.17)* hrs | (5.68 ± 0.06) hrs | None Observed | 0.0015 mg/kg | 100 | 0.15 mg/kg | 1.5 mg/kg | 0.5 mg/kg | – | – | – | – | – | 24.8% | 0.226 µM
